The results in this text go back to publication PMC8262137 (Biochemical pharmacology, 2020).

What is called Kd is the concentration at which binding is half-saturated. A low value points to a tighter complex.

For this experiment, the target named is P-glycoprotein (Pgp; Abcb1a, MDR3) (Mus musculus, UniProt P21447). Nature of the experiment: intrinsic protein fluorescence quenching. The class given is binding.
Chain of P-glycoprotein (Pgp; Abcb1a, MDR3) (P21447 whole entry): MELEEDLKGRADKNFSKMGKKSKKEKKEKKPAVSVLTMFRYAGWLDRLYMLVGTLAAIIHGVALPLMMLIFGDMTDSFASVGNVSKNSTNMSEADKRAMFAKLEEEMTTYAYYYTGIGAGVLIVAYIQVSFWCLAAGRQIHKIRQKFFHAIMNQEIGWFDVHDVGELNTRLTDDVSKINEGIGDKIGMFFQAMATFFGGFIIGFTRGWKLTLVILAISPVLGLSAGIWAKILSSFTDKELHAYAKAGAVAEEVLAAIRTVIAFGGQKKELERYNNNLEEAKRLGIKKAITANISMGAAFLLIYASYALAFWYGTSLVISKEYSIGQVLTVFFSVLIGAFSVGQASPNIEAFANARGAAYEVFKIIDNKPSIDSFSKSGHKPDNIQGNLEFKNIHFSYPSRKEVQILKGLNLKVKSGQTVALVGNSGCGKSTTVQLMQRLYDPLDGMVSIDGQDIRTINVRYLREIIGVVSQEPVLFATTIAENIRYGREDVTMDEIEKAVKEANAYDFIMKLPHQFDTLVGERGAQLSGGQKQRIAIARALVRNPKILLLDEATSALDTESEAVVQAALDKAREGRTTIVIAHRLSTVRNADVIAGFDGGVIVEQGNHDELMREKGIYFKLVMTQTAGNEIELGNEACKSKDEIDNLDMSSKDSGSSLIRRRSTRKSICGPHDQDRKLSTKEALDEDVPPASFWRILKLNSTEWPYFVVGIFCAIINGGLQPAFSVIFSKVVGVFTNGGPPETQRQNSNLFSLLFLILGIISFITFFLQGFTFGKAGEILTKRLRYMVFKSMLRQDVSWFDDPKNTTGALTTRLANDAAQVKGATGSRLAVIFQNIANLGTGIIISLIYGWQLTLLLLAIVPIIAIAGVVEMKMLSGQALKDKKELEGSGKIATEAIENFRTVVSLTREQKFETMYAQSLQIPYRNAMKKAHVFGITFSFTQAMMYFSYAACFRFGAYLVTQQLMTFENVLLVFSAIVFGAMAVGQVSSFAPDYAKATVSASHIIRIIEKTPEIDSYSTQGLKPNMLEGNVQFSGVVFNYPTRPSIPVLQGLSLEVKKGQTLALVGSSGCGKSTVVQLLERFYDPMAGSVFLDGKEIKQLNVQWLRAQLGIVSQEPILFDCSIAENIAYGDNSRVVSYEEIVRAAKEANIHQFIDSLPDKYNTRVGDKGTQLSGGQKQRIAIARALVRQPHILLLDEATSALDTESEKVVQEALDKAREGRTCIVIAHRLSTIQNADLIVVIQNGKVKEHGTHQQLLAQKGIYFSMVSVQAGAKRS

With `COc1cccc2c1C(=O)c1c(O)c3c(c(O)c1C2=O)C[C@@](O)(C(C)=O)C[C@@H]3O[C@H]1C[C@H](N)[C@H](O)[C@H](C)O1` [DNR, daunorubicin], the equilibrium dissociation constant (Kd) turned out to be 16.3 ± 0.7 µM.

`COc1cccc2c1C(=O)c1c(O)c3c(c(O)c1C2=O)C[C@@](O)(C(=O)CO)C[C@@H]3O[C@H]1C[C@H](N)[C@H](O)[C@H](C)O1` [DOX, doxorubicin]: the Kd amounted to 16.9 ± 1.3 µM.
